This note sets out measurements from BindingDB's records for doi:10.1021/cb700166z (Albert Einstein College of Medicine, 2007).

The structures appear in SMILES notation. “And” between values parts separate entries of the source, which are not always exact repeats. Equal values may be shown once.

Holding throughout (assay): Enzyme Activity Assay
Conditions in all cases: pH 7.5; 25 °C

Experiment [1] addresses T1, Aminodeoxyfutalosine nucleosidase (Helicobacter pylori (strain ATCC 700392 / 26695), UniProt O24915).
T1 sequence (O24915 whole entry): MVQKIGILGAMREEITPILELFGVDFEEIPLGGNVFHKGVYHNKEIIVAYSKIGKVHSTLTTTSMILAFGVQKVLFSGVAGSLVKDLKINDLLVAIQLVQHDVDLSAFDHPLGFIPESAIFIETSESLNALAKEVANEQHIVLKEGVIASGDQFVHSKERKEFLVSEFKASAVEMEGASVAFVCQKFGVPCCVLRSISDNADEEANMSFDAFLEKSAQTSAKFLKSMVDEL
The text has this:
(§1) Enzyme activity assay using various bacterial species of 5'-Methylthioadenosine nucleosidases (MTANs) excepted for MTAP, for human MTAP.

For experiment [2], the target named is T2, S-methyl-5'-thioadenosine phosphorylase (Homo sapiens, UniProt Q13126).
T2 sequence (Q13126 whole entry): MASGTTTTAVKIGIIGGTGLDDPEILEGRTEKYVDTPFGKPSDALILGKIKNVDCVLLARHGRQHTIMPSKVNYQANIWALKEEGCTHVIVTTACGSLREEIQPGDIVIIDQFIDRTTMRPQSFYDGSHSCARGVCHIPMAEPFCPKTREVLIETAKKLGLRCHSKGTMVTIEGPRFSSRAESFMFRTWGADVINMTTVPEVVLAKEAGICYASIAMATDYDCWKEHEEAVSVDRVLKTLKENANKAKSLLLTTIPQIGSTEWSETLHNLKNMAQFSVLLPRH
Text: as §1

Experiment [3] concerns the target T3, 5'-methylthioadenosine/S-adenosylhomocysteine nucleosidase (Neisseria meningitidis (strain alpha14), UniProt C6S634).
T3 sequence (C6S634 whole entry): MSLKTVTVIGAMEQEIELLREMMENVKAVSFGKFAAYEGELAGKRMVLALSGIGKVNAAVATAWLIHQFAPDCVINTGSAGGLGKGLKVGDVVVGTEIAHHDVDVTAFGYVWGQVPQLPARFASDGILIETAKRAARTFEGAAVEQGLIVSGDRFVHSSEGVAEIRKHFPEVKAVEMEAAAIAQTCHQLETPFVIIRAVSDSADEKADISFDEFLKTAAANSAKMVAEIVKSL
Text: as §1

The target in experiment [4] is 5'-methylthioadenosine/S-adenosylhomocysteine nucleosidase (Escherichia coli (strain K12), UniProt P0AF12).
Chain of 5'-methylthioadenosine/S-adenosylhomocysteine nucleosidase (Escherichia coli (strain K12), UniProt P0AF12) (P0AF12 whole entry): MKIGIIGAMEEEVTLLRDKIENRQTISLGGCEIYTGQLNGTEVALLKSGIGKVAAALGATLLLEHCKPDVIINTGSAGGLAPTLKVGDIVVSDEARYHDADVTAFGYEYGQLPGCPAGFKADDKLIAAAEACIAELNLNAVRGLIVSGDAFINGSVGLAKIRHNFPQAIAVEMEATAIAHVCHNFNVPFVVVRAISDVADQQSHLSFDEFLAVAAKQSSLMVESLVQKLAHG
Text: as §1

The target in experiment [5] is 5'-methylthioadenosine/S-adenosylhomocysteine nucleosidase (Klebsiella pneumoniae (strain 342), UniProt B5Y1L0).
Chain of 5'-methylthioadenosine/S-adenosylhomocysteine nucleosidase (Klebsiella pneumoniae (strain 342), UniProt B5Y1L0) (B5Y1L0 whole entry): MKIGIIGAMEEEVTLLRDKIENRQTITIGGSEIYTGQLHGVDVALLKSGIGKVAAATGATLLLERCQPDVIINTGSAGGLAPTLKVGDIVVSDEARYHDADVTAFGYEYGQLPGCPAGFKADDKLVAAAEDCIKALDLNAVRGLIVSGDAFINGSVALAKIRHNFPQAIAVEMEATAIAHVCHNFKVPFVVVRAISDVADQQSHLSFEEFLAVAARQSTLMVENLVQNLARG
Text: as §1

In experiment [6] the target is T4, 5'-methylthioadenosine/S-adenosylhomocysteine nucleosidase (Staphylococcus aureus (strain COL), UniProt Q5HFG2).
T4 sequence (Q5HFG2 whole entry): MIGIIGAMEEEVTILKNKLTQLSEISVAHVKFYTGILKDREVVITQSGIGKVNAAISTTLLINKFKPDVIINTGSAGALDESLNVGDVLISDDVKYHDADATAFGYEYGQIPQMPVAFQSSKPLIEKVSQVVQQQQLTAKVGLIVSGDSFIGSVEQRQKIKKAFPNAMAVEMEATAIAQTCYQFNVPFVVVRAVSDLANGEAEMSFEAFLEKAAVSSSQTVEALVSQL
Text: as §1

Experiment [7] deals with T5, Adenosylhomocysteine nucleosidase (Streptococcus pneumoniae (strain ATCC BAA-255 / R6), UniProt Q8DQ16).
T5 sequence (Q8DQ16 whole entry): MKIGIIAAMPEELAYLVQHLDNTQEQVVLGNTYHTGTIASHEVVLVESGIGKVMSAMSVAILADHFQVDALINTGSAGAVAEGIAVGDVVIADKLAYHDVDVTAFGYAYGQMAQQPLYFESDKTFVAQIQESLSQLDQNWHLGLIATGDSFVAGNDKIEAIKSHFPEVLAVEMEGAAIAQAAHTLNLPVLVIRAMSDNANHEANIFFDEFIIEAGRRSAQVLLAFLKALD
Text: as §1

Usually Kd stands for a measure of binding affinity in units of concentration. Read a low Kd as higher affinity.

For `Nc1ncnc2c(C3NC(CSc4ccc(Cl)cc4)C(O)C3O)c[nH]c12` (stereo unspecified), the Kd was 40 nM in experiment [1]; 0.166 nM in experiment [2]; 0.063 nM in experiment [3]; 0.002 nM in experiment [4]; 4.1 nM in experiment [5]; 53 nM in experiment [6]. Besides, in experiment [7], the Kd worked out at 190 nM.
In the case of `CSCC1NC(c2c[nH]c3c(N)ncnc23)C(O)C1O` (stereo unspecified) [2-(4-Amino-5H-pyrrolo[3,2-d]pyrimidin-7-yl)-3,4-dihydroxy-5-methylsulfanylmethyl-pyrrolidinium], the Kd turned out to be 1.2 nM in experiment [1]; 1 nM in experiment [2]; 0.36 nM in experiment [3]; 0.077 nM in experiment [4]; 45 nM in experiment [5]; 77 nM in experiment [6]. Besides, binding in experiment [7] was put at a Kd of 1000 nM.
Turning to `CCSC[C@H]1CN(Cc2c[nH]c3c(N)ncnc23)C[C@@H]1O` [DADMe-ImmA-Et], the Kd in experiment [1] worked out at 0.515 nM; in experiment [3], 0.046 nM; in experiment [5], 2.2 nM; in experiment [6] it was 1.3 nM; in experiment [7] it was 10 nM.
`Nc1ncnc2c(C3NC(CSCc4ccccc4)C(O)C3O)c[nH]c12` (stereo unspecified): the dissociation constant (Kd) in experiment [1] is 200 nM; in experiment [2], 26 nM; in experiment [3], 0.17 nM; in experiment [4] it was 0.027 nM; in experiment [5] it was 13 nM; in experiment [6], 12 nM. The compound also displayed a Kd in experiment [7] of 210 nM.
Take `Nc1ncnc2c(CN3CC(O)C(CSc4ccc(Cl)cc4)C3)c[nH]c12` (stereo unspecified) [DADMe-ImmA-p-ClPh]: the dissociation constant (Kd) in experiment [1] is 0.57 nM; in experiment [2], 0.01 nM; in experiment [3], 0.021 nM; in experiment [5], 0.5 nM; in experiment [6] it was 8 nM; in experiment [7], 0.36 nM.
Turning to `Nc1ncnc2c(CN3CC(O)C(CSCc4ccccc4)C3)c[nH]c12` (stereo unspecified), the Kd turned out to be 200 nM in experiment [1]; 0.7 nM in experiment [2]; 0.024 nM in experiment [3]; 1.9 nM in experiment [5]; 0.841 nM in experiment [6]; 2.4 nM in experiment [7].
`CCSCC1NC(c2c[nH]c3c(N)ncnc23)C(O)C1O` (stereo unspecified): the Kd was 3.4 nM in experiment [1]; 0.266 nM in experiment [2]; 0.12 nM in experiment [3]; 0.012 nM in experiment [4]; 13 nM in experiment [5]; 12 nM in experiment [6]. This compound also showed a dissociation constant Kd in experiment [7] of 40 nM.
On to `CSC[C@H]1CN(Cc2c[nH]c3c(N)ncnc23)C[C@@H]1O` [DADMe-ImmA-Me], for which the dissociation constant Kd in experiment [1] is 0.571 nM; in experiment [2], 0.086 nM and 0.034 nM; in experiment [3], 0.14 nM; in experiment [5] it was 0.784 nM; in experiment [6], 1.4 nM; in experiment [7] it was 24 nM.
